Source: US12552753B2, “Methods and compositions for targeting Tregs using CCR8 inhibitors” (Nanjing Immunophage Biomedical Co., Ltd., priority 2020, dated 2026)
Where a name gives a salt, the structure may show the parent alone.

molecular target: CCR8 (Homo sapiens, UniProt P51685); assay: Tango assay (Tango-CCR8-Gal4-CHO-K1 cells, CCL1-stimulated, ONE-Glo luminescence); conditions: Tango Assay IC50, Inhibition of CCR8 Tango cell in vitro
Sequence (P51685 whole entry, the tested form may be a part): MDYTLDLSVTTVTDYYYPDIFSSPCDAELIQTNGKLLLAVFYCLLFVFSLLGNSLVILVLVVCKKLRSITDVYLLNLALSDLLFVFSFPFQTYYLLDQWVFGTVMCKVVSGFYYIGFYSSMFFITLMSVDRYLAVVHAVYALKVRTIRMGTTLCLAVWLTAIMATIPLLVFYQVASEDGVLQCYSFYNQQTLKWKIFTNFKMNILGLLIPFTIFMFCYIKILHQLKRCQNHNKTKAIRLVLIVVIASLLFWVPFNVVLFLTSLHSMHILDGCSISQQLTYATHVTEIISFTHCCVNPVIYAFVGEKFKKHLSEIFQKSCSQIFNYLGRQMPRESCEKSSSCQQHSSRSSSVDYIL

| SMILES | IC50 [µM] |
| --- | --- |
| Cc1cc(S(=O)(=O)NC(C(C)C)C2CCNCC2)ccc1NC(=O)c1ccccc1C (stereo not shown) [Compound 224A, 2-methyl-N-(2-methyl-4-(N-(2-methyl-1-(piperidin-4-yl)propyl)sulfamoyl)phenyl)benzamide hydrochloride] | 0.494 |
| Cc1cc(S(=O)(=O)NC(C)C2CCNCC2)ccc1NC(=O)c1ccccc1C (stereo not shown) [Compound 167A, 2-methyl-N-(2-methyl-4-(N-(1-(piperidin-4-yl)ethyl)sulfamoyl)phen-yl)benzamide hydrochloride] | 0.046 |
| Cc1ccccc1C(=O)Nc1ccc(S(=O)(=O)NC(C)C2CCCCN2C(=O)OC(C)(C)C)c2ccccc12 (single isomer, unassigned) [Compound 68, tert-butyl 2-(1-(4-(2-methylbenzamido)naph-thalene-1-sulfonamido)ethyl)piper-dine-1-carboxylate] | 1.76 |
| CC(NS(=O)(=O)c1ccc(-c2[nH]nnc2-c2ccccc2)c2ccccc12)C1CCCCC1 (stereo not shown) [Compound 148, N-(1-cyclohexylethyl)-4-(4-phenyl-1H-1,2,3-triazol-5-yl)naphthalene-1-sulfonamide] | 0.613 |
| Cc1ccccc1C(=O)Nc1ccc(S(=O)(=O)NC(C)CC2CCN(C)CC2)c2ccccc12 (stereo not shown) [Compound 214, 2-methyl-N-(4-(N-(1-(1-methylpiperidin-4-yl)propan-2-yl)sulfamoyl)naphthalen-1-yl)benzamide] | > 10 |
| Cc1cc(S(=O)(=O)N[C@@H](C)C2CCN(C)CC2)c(F)cc1NC(=O)c1ccccc1C [Compound 262A, (S)-N-(5-fluoro-2-methyl-4-(N-(1-(1-methylpiperidin-4-yl)ethyl)sulfamoyl)phenyl)-2-methylbenzamide] | > 100 |
| Cc1ccccc1C(=O)Nc1ccc(S(=O)(=O)NC(C)C2CCCN(C(=O)CN(C)C)C2)c2ccccc12 (stereo not shown) [Compound 159, N-(4-(N-(1-(1-(2-(dimethylamino)acetyl)piperidin-3-yl)ethyl)sulfamoyl)naph-thalen-1-yl)-2-methylbenzamide] | > 10 |
| Cc1ccccc1C(=O)Nc1ccc(S(=O)(=O)NC(C)(C)c2ccccc2)c2ccccc12 [Compound 283, 2-methyl-N-(4-(N-(2-phenylpropan-2-yl)sulfamoyl)naphthalen-1-yl)benzamide] | > 100 |
| Cc1ccccc1C(=O)Nc1ccc(S(=O)(=O)NC(C)C2CCCN(C(=O)CN)C2)c2ccccc12 (single isomer, unassigned) [Compound 156A, N-(4-(N-(1-(1-(2-ammoacetyl)piperidin-3-yl)ethyl)sulfamoyl)naph-thalen-1-yl)-2-methylbenzamide] | 0.085 |
| Cc1ccccc1C(=O)Nc1ccc(S(=O)(=O)NC(C)C2CCCCC2)c2ccccc12 (stereo not shown) [Compound 57, N-(4-(N-(1-cyclohexylethyl)sulfamo-yl)naphthalen-1-yl)-2-methylbenzamide] | 0.003 |
| Cc1ccccc1C(=O)Nc1ccc(S(=O)(=O)NC(C)C2CC3CCC2CC3)c(C)c1 (stereo not shown) [Compound 163, N-(4-(N-(1-(bicyclo[2.2.2]octan-2-yl)ethyl)sulfamoyl)-3-methylphenyl)-2-methylbenzamide] | 0.086 |
| Cc1ccccc1C(=O)Nc1ccc(S(=O)(=O)N[C@H](C)C2CCNCC2)cc1C(N)=O [Compound 194, (R)-N-(2-carbamoyl-4-(N-(1-(piperidin-4-yl)ethyl)sulfamoyl)phenyl)-2-methylbenzamide] | > 10 |
| Cc1ccccc1C(=O)Nc1ccc(S(=O)(=O)N[C@H](C)C2CCN(C(=O)OC(C)(C)C)CC2)cc1Br [Compound 191, (R)-tert-butyl 4-(1-(3-bromo-4-(2-methylbenzamido)phen-ylsulfonamido)ethyl)pi-peridine-1-carboxylate] | > 10 |
| Cc1cc(S(=O)(=O)N[C@H](C)C2CCNCC2)ccc1NC(=O)c1cncs1 [Compound 252A, (R)-N-(2-methyl-4-(N-(1-(piperidin-4-yl)ethyl)sulfamoyl)phenyl)thiazole-5-carboxamide hydrochloride] | > 100 |
| CC(NS(=O)(=O)c1ccc2[nH]cnc2c1)C1CCCCC1 (stereo not shown) [Compound 78, N-(1-cyclohexylethyl)-1H-benzo[d]imidazole-5-sulfonamide] | > 10 |
| Cc1ccccc1C(=O)Nc1ccc(S(=O)(=O)N[C@H](C)C2CCNCC2)cc1Cl [Compound 165A, (R)-N-(2-chloro-4-(N-(1-(piperidin-4-yl)ethyl)sulfamoyl)phen-yl)-2-methylbenzamide hydrochloride] | 0.012 |
| COC(=O)CN1CCCC(C(C)NS(=O)(=O)c2ccc(NC(=O)c3ccccc3C)c3ccccc23)C1 (single isomer, unassigned) [Compound 19B, methyl 2-(3-(1-(4-(2-methylbenzamido)naph-thalene-1-sulfonamido)ethyl)piper-idin-1-yl)acetate] | > 10 |
| Cc1ccccc1C(=O)Nc1ccc(S(=O)(=O)NC(C)C(C)C)c2ccccc12 (stereo not shown) [Compound 81, 2-methyl-N-(4-(N-(3-methylbutan-2-yl)sulfamoyl)naphthalen-1-yl)benzamide] | 0.142 |

More lines, now with the values ahead:

| IC50 [µM] | SMILES |
| --- | --- |
| > 10 | Cc1ccccc1C(=O)Nc1ccc(S(=O)(=O)NC2CCc3n[nH]cc3C2)c2ccccc12 (stereo not shown) [Compound 52, 2-methyl-N-(4-(N-(4,5,6,7-tetrahydro-2H-indazol-5-yl)sulfamoyl)naphthalen-1-yl)benzamide] |
| > 10 | CCCN1CCN(c2ccc(F)c(NS(=O)(=O)c3ccc(NC(=O)c4ccccc4C)c4ccccc34)c2)CC1 [Compound 95, N-(4-(N-(2-fluoro-5-(4-propylpiperazin-1-yl)phenyl)sulfamoyl)naphthalen-1-yl)-2-methylbenzamide] |
| > 100 | Cc1ccccc1CNc1ccc(S(=O)(=O)N[C@H](C)C2CCN(C)CC2)cc1C [Compound 229, (R)-3-methyl-4-((2-methylbenzyl)amino)-N-(1-(1-methylpiperidin-4-yl)ethyl)benzenesulfonamide] |
| > 10 | COc1ccccc1C(C)NS(=O)(=O)c1ccc(NC(=O)c2ccccc2C)c2ccccc12 (stereo not shown) [Compound 51, N-(4-(N-(1-(2-methoxyphenyl)ethyl)sul-famoyl)naphthalen-1-yl)-2-methylbenzamide] |
| 0.019 | Cc1cc(S(=O)(=O)N[C@H](C)C2CCNCC2)c(C)cc1NC(=O)c1ccccc1C [Compound 171A, (R)-N-(2,5-dimethyl-4-(N-(1-(piperidin-4-yl)ethyl)sulfamoyl)phen-yl)-2-methylbenzamide hydrochloride] |
| > 10 | Cc1cc(S(=O)(=O)N[C@H](C)C2CCNCC2)cc(C)c1NC(=O)c1ccccc1 [Compound 181, (R)-N-(2,6-dimethyl-4-(N-(1-(piperidin-4-yl)ethyl)sulfa-moyl)phenyl)benza-mide hydrochloride] |
| 0.351 | Cc1ccccc1C(=O)Nc1ccc(S(=O)(=O)NC2CCc3nc(N)sc3C2)c2ccccc12 (stereo not shown) [Compound 85, N-(4-(N-(2-amino-4,5,6,7-tetrahydrobenzo[d]thia-zol-6-yl)sulfamoyl)naphthalen-1-yl)-2-methylbenzamide] |
| 0.01 | Cc1ccccc1C(=O)Nc1ccc(S(=O)(=O)NC(C)C=C2CCCCC2)c2ccccc12 (stereo not shown) [Compound 130, N-(4-(N-(1-cyclohexylidene-propan-2-yl)sulfamoyl)naphtha-len-1-yl)-2-methylbenzamide] |
| > 100 | Cc1ccccc1C(=O)Nc1c(C)cc(S(=O)(=O)N[C@H](C)C2CCNCC2)cc1F [Compound 302, (R)-N-(2-fluoro-6-methyl-4-(N-(1-(piperidin-4-yl)eth-yl)sulfamoyl)phen-yl)-2-methylbenzamide hydrochloride] |
| 0.003 | COc1ccc(C(=O)Nc2ccc(S(=O)(=O)N[C@H](C)C3CCN(C)CC3)cc2C)c(C)c1 [Compound 266, (R)-4-methoxy-2-methyl-N-(2-methyl-4-(N-(1-(1-methylpiperidin-4-yl)ethyl)sulfamoyl)phenyl) benzamide] |
| > 10 | Cc1ccccc1C(=O)Nc1ccc(S(=O)(=O)Nc2ccc3c(c2)N(C(=O)CN(C)C)CC3)c2ccccc12 [Compound 36, N-(4-(N-(1-(2-(dimethylamino)acetyl)indolin-6-yl)sulfamoyl)naphthalen-1-yl)-2-methylbenzamide] |
| 0.06 | COCCN1CCC([C@@H](C)NS(=O)(=O)c2ccc(NC(=O)c3ccccc3C)c(C)c2)CC1 [Compound 202, (R)-N-(4-(N-(1-(1-(2-methoxyethyl)piperidin-4-yl)ethyl)sulfamoyl)-2-methylphenyl)-2-methylbenzamide] |
| 0.705 | CC(=O)N1CCC(C(C)NS(=O)(=O)c2ccc(NC(=O)c3ccccc3C)c3ccccc23)CC1 (stereo not shown) [Compound 62, N-(4-(N-(1-(1-acetylpiperidin-4-yl)ethyl)sulfamoyl)naph-thalen-1-yl)-2-methylbenzamide] |
| > 10 | Cc1ccccc1C(=O)Nc1ccc(S(=O)(=O)NC(C)c2cccc(C(=O)O)c2)cc1 (stereo not shown) [Compound 54, 3-(1-(4-(2-methylbenzamido)phe-nylsulfonamido)ethyl) benzoic acid] |
| 0.041 | Cc1cc(S(=O)(=O)N[C@H](C)C2CCN(CCO)CC2)ccc1NC(=O)c1ccccc1C [Compound 205, (R)-N-(4-(N-(1-(1-(2-hydroxyethyl)piperidin-4-yl)ethyl)sulfamoyl)-2-methylphenyl)-2-methylbenzamide] |
| 0.015 | Cc1ccccc1C(=O)Nc1cc(C)c(S(=O)(=O)N[C@H](C)C2CCNCC2)cc1F [Compound 257, (R)-N-(2-fluoro-5-methyl-4-(N-(1-(piperidin-4-yl)ethyl)sulfamoyl)phenyl)-2-methylbenzamide hydrochloride] |

same assay, conditions: read-out: Tango Assay IC50, Inhibition of CCR8 Tango cell in vitro

| IC50 [µM] | SMILES |
| --- | --- |
| > 10 | Cc1ccccc1C(=O)Nc1ccc(S(=O)(=O)NC(C)C2CCCN(C(=O)[C@H](C)NC(=O)OC(C)(C)C)C2)c2ccccc12 (single isomer, unassigned) [Compound 157C] |
| > 10 | Cc1ccccc1C(=O)Nc1ccc(S(=O)(=O)NC(C)C2CCCN(C(=O)[C@H](C)NC(=O)OC(C)(C)C)C2)c2ccccc12 (single isomer, unassigned) [Compound 157D] |
| 0.085 | Cc1ccccc1C(=O)Nc1ccc(S(=O)(=O)NC(C)C2CCNC2)c2ccccc12 (stereo not shown) [Compound 66, 2-methyl-N-(4-(N-(1-(pyrrolidin-3-yl)ethyl)sulfamoyl)naph-thalen-1-yl)benzamide] |
